In patent publication US20080139623A1, “Amorphous and crystalline forms of pantoprazole magnesium salt” (priority 2006, published 2008):

What was measured:
Format in all cases: physicochemical
[1] = Solubility in water at 25° C. (saturated solution, HPLC assay); settings: for solubility: in water at 25° C.
Protocol: The solubilities of amorphous pantoprazole magnesium and pantoprazole magnesium Form A were each measured in water at 25° C. The certain amount of amorphous sample and form A sample were added each to 50 ml of distillated water. The solutions were kept saturated during the experiment. The aliquots were taken, filtered and injected into HPLC by the method of assay determination for PNT-Mg and the concentrations were calculated by comparison of absorptions at certain wavelength against the known concentration of PNT-Mg standard.

[2] = Analysis of particle size by light microscope in light oil
Description: Samples of crystalline pantoprazole magnesium Forms A (prepared according to example 15), E, F, G, and H were each analyzed by light microscope in light oil. The results are depicted in FIGS. 29-33, respectively.

[3] = Stability of crystalline form under heating (100° C., two weeks, PXRD); settings: heated at 100° C. for two weeks, analyzed by PXRD
Protocol: The powder X-ray diffraction was performed on Scintag X-ray powder diffractometer model X'TRA with a solid state detector. Copper radiation of 1.5418 Å was used. The sample holder was a round standard aluminum sample holder with rough zero background. The scanning parameters were range: 2-40 degrees two-theta; scan mode: continuous scan; step size: 0.05 deg.; and at a rate of 5 deg/min.
Samples of crystalline pantoprazole magnesium Form C and Form A (prepared according to example 15) were each heated at 100° C. for two weeks. The samples were then analyzed by PXRD.

| Substance | particle shape / description [2] | particle size [2] | also measured |
| --- | --- | --- | --- |
| 5-difluoromethoxy-2-[[3,4-dimethoxy-2-pyridinyl)methyl]sulfinyl]-1H-benzimidazole magnesium salt [amorphous pantoprazole magnesium] |  |  | solubility [1]: about 1.3 mg/ml; solubility in water relative to crystalline Form A ([1]; in water, amorphous form versus Form A prepared according to the '464 patent): approximately 6.5 times |
| 5-difluoromethoxy-2-[[3,4-dimethoxy-2-pyridinyl)methyl]sulfinyl]-1H-benzimidazole magnesium salt [Form H] | very small particles |  |  |
| 5-difluoromethoxy-2-[[3,4-dimethoxy-2-pyridinyl)methyl]sulfinyl]-1H-benzimidazole magnesium salt [Form E] | plate-shaped particles | less than 20 microns |  |
| 5-difluoromethoxy-2-[[3,4-dimethoxy-2-pyridinyl)methyl]sulfinyl]-1H-benzimidazole magnesium salt [Form F] | spherical particles |  |  |
| 5-difluoromethoxy-2-[[3,4-dimethoxy-2-pyridinyl)methyl]sulfinyl]-1H-benzimidazole magnesium salt [Form A, reference compound] | plate-shaped particles | less than 50 microns | solubility [1]: about 0.2 mg/ml; crystalline form after heating (polymorphic stability) [3]: transformed to amorphous form |
| 5-difluoromethoxy-2-[[3,4-dimethoxy-2-pyridinyl)methyl]sulfinyl]-1H-benzimidazole magnesium salt [Form G] |  | less than 10 microns |  |
| 5-difluoromethoxy-2-[[3,4-dimethoxy-2-pyridinyl)methyl]sulfinyl]-1H-benzimidazole magnesium salt [Form C] |  |  | crystalline form after heating (polymorphic stability) [3]: maintained its crystalline form |
